Source: the NIST ThermoML archive (doi:10.1016/j.fluid.2014.01.019)
Numbers after ± are expanded uncertainties.

Assay: xn = mol fraction of the nth substance listed
Conditions: 101 kPa, Liquid; for mass density: Vibrating tube method; for speed of sound: Frequency=2 MHz, Linear variable-path acoustic interferometer

Cc1cccc([N+](=O)[O-])c1 [3-nitrotoluene] + OCc1ccccc1
Conditions	mass density, 298.15 K [kg/m3]	mass density, 303.15 K [kg/m3]	mass density, 308.15 K [kg/m3]	mass density, 313.15 K [kg/m3]	speed of sound, 303.15 K [m/s]	speed of sound, 313.15 K [m/s]
x2 = 0.0537	1146.83 ± 0.18	1141.95 ± 0.18	1137.26 ± 0.18	1132.52 ± 0.18	1446 ± 9	1414 ± 9
x2 = 0.1225	1139.74 ± 0.18	1134.93 ± 0.18	1130.25 ± 0.18	1125.57 ± 0.17	1451 ± 9	1419 ± 9
x2 = 0.1914	1132.59 ± 0.18	1127.81 ± 0.18	1123.19 ± 0.17	1118.56 ± 0.17	1456 ± 9	1424 ± 9
x2 = 0.2356	1127.96 ± 0.18	1123.23 ± 0.17	1118.65 ± 0.17	1114.02 ± 0.17	1459 ± 9	1427 ± 9
x2 = 0.2992	1121.25 ± 0.17	1116.57 ± 0.17	1112.02 ± 0.17	1107.46 ± 0.17	1464 ± 9	1432 ± 9
x2 = 0.3717	1113.52 ± 0.17	1108.89 ± 0.17	1104.4 ± 0.17	1099.9 ± 0.17	1469 ± 9	1438 ± 9
x2 = 0.4567	1104.33 ± 0.17	1099.76 ± 0.17	1095.34 ± 0.16	1090.91 ± 0.16	1476 ± 9	1444 ± 9
x2 = 0.5413	1095.03 ± 0.16	1090.53 ± 0.16	1086.18 ± 0.16	1081.85 ± 0.16	1481 ± 9	1452 ± 9
x2 = 0.6035	1088.09 ± 0.16	1083.66 ± 0.16	1079.37 ± 0.16	1075.08 ± 0.16	1486 ± 9	1456 ± 9
x2 = 0.6539	1082.39 ± 0.16	1078.02 ± 0.16	1073.77 ± 0.16	1069.5 ± 0.15	1490 ± 9	1460 ± 9
x2 = 0.7023	1076.86 ± 0.16	1072.56 ± 0.16	1068.36 ± 0.15	1064.17 ± 0.15	1494 ± 9	1463 ± 9
x2 = 0.7437	1072.1 ± 0.16	1067.84 ± 0.15	1063.65 ± 0.15	1059.52 ± 0.15	1496 ± 9	1467 ± 9
x2 = 0.8121	1064.1 ± 0.15	1059.94 ± 0.15	1055.82 ± 0.15	1051.76 ± 0.15	1502 ± 9	1472 ± 9
x2 = 0.8556	1058.96 ± 0.15	1054.85 ± 0.15	1050.78 ± 0.15	1046.79 ± 0.15	1505 ± 9	1475 ± 9
x2 = 0.9354	1049.37 ± 0.15	1045.39 ± 0.15	1041.41 ± 0.15	1037.5 ± 0.14	1511 ± 9	1481 ± 9
